From US20250296956A1, “POLYPEPTIDE, PREPARATION METHOD, AND USE THEREOF” (Hunan University, priority 2022, published 2025)
Bridge positions count the residues as written; N and C are the ends. Ends that are not written are not given here. Peptide text beside a SMILES is read from it.

Legend:
PC3 cells = experiment: Growth/proliferation inhibition, CCK-8 and clone formation, PC3; type: cell-based, human; settings: for effect of inhibiting cell growth after combining with the cell-penetrating peptide R9: CCK-8, 24 hours, peptide connected with R9
Protocol: (§1) 5.1 Referring to FIG. 5A, the polypeptides R9, RM3, and RSM3 were prepared into a 50 mM mother solution with sterile pure water, and the mother solution was gradiently diluted with a basal culture medium, the diluted peptide solution was added to 96-well plates pre-laid with PC3 and DU145 cells, 100 μL per well, and three replicates for each concentration. After 24 h of treatment, the OD value at 450 nm was measured with a CCK-8 kit, and the results were calculated and analyzed.
(§2) FIG. 5B illustrates a clone formation experiment, the grown PC3 and DU145 cells were digested with 0.25% trypsin and the number of cells were counted, 300 cells were added to each well of the six-well plate, and 2 ml of complete culture medium was added to continue culturing for 24 hours. M3, R9, RM3, and RSM3 were added to each well and cultured for 7 days, the medium was discarded, the cells were washed, stained with crystal violet, and then microscopically photographed, and the number of the cells were counted.
(§3) Referring to FIG. 6, the above two polypeptides were prepared into a 50 mM mother solution with sterile pure water, and then gradiently diluted with a basal culture medium, the diluted peptide solution was added to a 96-well plate pre-laid with PC3 and DU145 cells, 100 μL per well, and three replicates for each concentration. After 24 hours of treatment, the OD value was measured at 450 nm using CCK-8, and the obtained values were calculated.

DU145 cells = experiment: Growth/proliferation inhibition, CCK-8 and clone formation, DU145; type: cell-based, human; settings: for effect of inhibiting cell growth after combining with the cell-penetrating peptide R9: CCK-8, 24 hours, peptide connected with R9
Protocol: as §1, §2, §3

RNA methylation = experiment: Determination of RNA methylation (m6A) in prostate cancer cells, dot blot; type: cell-based, human; settings: PC3 and DU145 cells, 12 hours
Protocol: In FIG. 3, MB is methylene blue staining, and m^6A is methylation content. 500 ng and 3000 ng are the loaded sample amounts of RNA in the experiment.

METTL3 = biological target: T1, METTL3 (Homo sapiens, UniProt Q86U44); experiment: Inhibition of METTL3 expression in prostate cancer cells, immunoblot; type: cell-based; settings: PC3 and DU145 cells, 20 μM, 24 hours
T1 construct: endogenous in cells; host or cells: PC3 and DU145 cells
Protocol: Referring to FIG. 4, a certain amount of polypeptide was weighed and dissolved into a 50 mM mother solution, the polypeptides R9, RM3, and RSM3 were prepared into a 50 mM mother solution with sterile pure water, after gradient dilution, the mother solution were added to a 6-well plate with PC3 and DU145 cells pre-laid, the final concentration of the polypeptide was 20 μM, 2 mL per well, and three replicates were used for each concentration. After 24 hours of treatment, the cells were lysed to extract cell proteins, and the proteins were separated by electrophoresis and transferred to a PVDF membrane, to incubate the primary antibody and secondary antibody of METTL3, and finally exposed for imaging.
In FIG. 4, GAPDH is an internal reference in the immunoblotting experiment (WB experiment).

[1] = Drug safety assessment in vivo, blood indexes; parameters: species or system C57BL/C mice; settings: 50 mg/kg intraperitoneal once, 24 hours; for platelets (PLT) / red blood cells (RBC) / white blood cells (WBC) in the blood: compared with R9 and PBS; for white blood cells (WBC) in the blood / hemoglobin (HMGB): within the normal range
Protocol: Referring to FIGS. 7A to 7H, (A) drug safety assessment in vivo: C57BL/C mice raised for 7 weeks were intraperitoneally injected with a dose of 50 mg/kg (R9, RM3, RSM3) once, after 24 hours, the mice were sacrificed and the blood of the mice was taken to measure indexes such as white blood cells, platelets, red blood cells, and hemoglobin, to analyze toxicity of the drug to normal animals.

[2] = test system: PC3 prostate cancer cells with high expression of METTL3; experiment: Anti-tumor experiment in vivo, PC3 prostate tumor-bearing mouse model; parameters: species or system BALB/c nude mice; settings: for body weight changes: tumor model mice
Protocol: (B) Anti-tumor experiment in vivo: a prostate tumor-bearing mouse model is selected, the specific steps to construct the animal model are as follows: PC3 prostate cancer cells with high expression of METTL3 were cultured to a logarithmic growth phase, the PC3 prostate cancer cells were digested, collected, and prepared into a cell suspension with a concentration of 1×10^7 cells/mL. 4 to 6 week-old male and female BALB/c nude mice were taken, and were injected with 100 μL of cell suspension into the back of the hind limbs, to establish a tumor model. After a diameter of the mouse tumor grows to about 0.5 cm, the mice were randomly divided into groups according to the experimental requirements: PBS, R9, RM3, RSM3, etc. Peritumoral administration is performed on the mice, once every two days, for two consecutive weeks.

[3] = test system: DU145 (human prostate cancer cells); settings: for effect of mutation of R9-MPF13 on the anti-proliferative effect: relative to R9-MPF13; for inhibitory effect on the proliferation of prostate cancer cells DU145: DU145, 48 hours, MTT
Protocol: 5.2 Some of the polypeptides in Table 1 were prepared into a 10 mM mother solution with sterile pure water, and the mother solution is gradiently diluted with a basal culture medium, the diluted polypeptide solution was added to 96-well plates with DU145 cells pre-laid, 100 μL per well, and four replicates for each concentration. After 48 hours of treatment, the modified MTT kit was used to treat and measure the OD value at 580 nm, and the results were calculated and analyzed.
(§4) The experiment method includes: the polypeptide was prepared into a 10 mM mother solution with sterile pure water, and after gradient dilution with a basal culture medium, the diluted polypeptide solution was added to a 96-well plate with various cells pre-laid, 100 μL per well, and four replicates for each concentration. After 48 hours of treatment, the modified MTT kit was used to treat and measure the OD value at 580 nm, and the results are calculated and analyzed.

[4] = test system: SaoS2 (human osteosarcoma cells); settings: 48 h
Protocol: as §4

[5] = test system: HepG2 (human hepatoblastoma cells); settings: 48 h
Protocol: as §4

[6] = test system: HCT116 (colorectal cancer cell line); settings: 48 h
Protocol: as §4

[7] = test system: A375 (human malignant melanoma); settings: 48 h
Protocol: as §4

[8] = test system: Hela (human anterior cervical cancer cells); settings: 48 h
Protocol: as §4

[9] = test system: A549 (lung cancer human alveolar basal epithelial cells); settings: 48 h
Protocol: as §4

[10] = test system: K562 (human chronic myeloid leukemia cells); settings: 48 h
Protocol: as §4

[11] = test system: OVCAR-3 (ovarian adenocarcinoma cells); settings: 48 h
Protocol: as §4

METTL3 and METTL14 = METTL3 and METTL14 (Homo sapiens, UniProt Q86U44); experiment: Binding to METTL3 and METTL14 proteins in vitro
[12] = CCK-8 24 h, clone formation 7 days
[13] = peritumoral administration once every two days for two weeks

Chain of METTL3 and METTL14 (Q86U44 whole entry, species assumed): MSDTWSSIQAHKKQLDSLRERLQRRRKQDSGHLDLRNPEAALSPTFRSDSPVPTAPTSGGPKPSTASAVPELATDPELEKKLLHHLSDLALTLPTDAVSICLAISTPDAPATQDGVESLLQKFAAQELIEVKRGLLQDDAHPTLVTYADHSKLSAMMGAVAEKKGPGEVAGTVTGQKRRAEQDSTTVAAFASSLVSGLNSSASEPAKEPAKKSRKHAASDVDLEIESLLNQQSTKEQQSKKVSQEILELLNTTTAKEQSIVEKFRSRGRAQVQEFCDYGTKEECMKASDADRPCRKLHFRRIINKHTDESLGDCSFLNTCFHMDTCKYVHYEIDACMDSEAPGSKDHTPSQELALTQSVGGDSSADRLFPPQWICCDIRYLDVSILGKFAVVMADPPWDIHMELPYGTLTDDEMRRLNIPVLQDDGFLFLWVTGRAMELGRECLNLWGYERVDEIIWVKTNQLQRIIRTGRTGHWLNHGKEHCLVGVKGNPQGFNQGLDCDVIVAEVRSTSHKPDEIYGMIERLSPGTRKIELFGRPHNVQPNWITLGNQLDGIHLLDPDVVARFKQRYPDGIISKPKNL
T1 sequence (Q86U44 2-580 limits assumed): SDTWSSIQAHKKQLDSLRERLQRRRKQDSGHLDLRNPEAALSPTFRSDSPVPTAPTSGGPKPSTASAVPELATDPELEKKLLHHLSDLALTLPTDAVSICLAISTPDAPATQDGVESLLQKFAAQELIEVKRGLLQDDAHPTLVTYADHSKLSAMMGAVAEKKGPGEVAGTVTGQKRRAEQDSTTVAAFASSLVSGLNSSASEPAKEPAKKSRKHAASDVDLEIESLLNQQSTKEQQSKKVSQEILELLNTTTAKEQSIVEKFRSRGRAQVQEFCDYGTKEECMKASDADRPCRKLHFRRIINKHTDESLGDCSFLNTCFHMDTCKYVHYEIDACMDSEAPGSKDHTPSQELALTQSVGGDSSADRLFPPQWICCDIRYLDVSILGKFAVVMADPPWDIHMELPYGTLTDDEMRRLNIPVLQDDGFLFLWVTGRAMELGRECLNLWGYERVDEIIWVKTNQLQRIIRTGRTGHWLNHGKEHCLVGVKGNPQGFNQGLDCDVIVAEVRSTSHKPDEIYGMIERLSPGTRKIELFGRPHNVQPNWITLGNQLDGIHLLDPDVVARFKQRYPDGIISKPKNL

QLQRIIRTGRTGHWLNHG [Polypeptide M1, tested after being connected with the cell-penetrating peptide R9]
effect of inhibiting cell growth after combining with the cell-penetrating peptide R9 (PC3 cells): certain effect of inhibiting cell growth
effect of inhibiting cell growth after combining with the cell-penetrating peptide R9 (DU145 cells): certain effect of inhibiting cell growth

RSM3: stapled peptide from RM3, 10th and 17th cysteines connected through 4,4-bis(bromomethyl)biphenyl (RRRRRRRRRCMELGRECLNLW; linker 10-17 via 4,4‑bis(bromomethyl)biphenyl)
inhibition of RNA methylation (m6A) (RNA methylation): better in terms of stability and methylation inhibition effect
inhibition of RNA methylation (m6A) (RNA methylation; listed as R SM3): significantly inhibit the RNA methylation
inhibition of the expression of METTL3 (METTL3): inhibit the expression of METTL3
inhibitory effect on the growth of prostate cancer cells (PC3 cells; [12]): good inhibitory effect
inhibitory effect on the growth of prostate cancer cells (DU145 cells; [12]): good inhibitory effect
platelets (PLT) [1]: no significant effect
red blood cells (RBC) [1]: no significant effect
white blood cells (WBC) in the blood [1]: slightly increased this index
hemoglobin (HMGB) [1]: a certain reducing effect
tumor mass ([2]; compared with R9 group and PBS, peritumoral administration once every two days for two weeks): significantly less
effect of inhibiting the growth of prostate tumors ([2]; overall comparison of the METTL3 polypeptide inhibitors): more effective
tumor volume changes [2, 13]: significantly inhibit the increase in tumor volume
body weight changes [2, 13]: no significant effect on the body weight

RRRRRRRRRRKMELGREYLNLW [Polypeptide R9-RKY]
effect of mutation of R9-MPF13 on the anti-proliferative effect [3]: enhance the anti-proliferative effect

RRRRRRRRRRKWCLGRELLCLW (stapled peptide precursor) [Polypeptide R9-PSRKWL]
inhibitory effect on the proliferation of prostate cancer cells DU145 [3]: better inhibitory effect

RRRRRRRRRRAMELGRECLNLA [Polypeptide R9-RA]
effect of mutation of R9-MPF13 on the anti-proliferative effect [3]: weaken the anti-proliferative effect

RRRRRRRRRRKMELGRELLNLW-NH2 (C-terminus assumed) [Polypeptide R9-RKL]
IC50 ([3]; 48 h): < 11 µM
inhibitory effect on the proliferation of prostate cancer cells DU145 [3]: better inhibitory effect
effect of mutation of R9-MPF13 on the anti-proliferative effect [3]: enhance the anti-proliferative effect
IC50 [4]: < 11 µM
IC50 [5]: < 11 µM
IC50 [6]: < 11 µM
IC50 [7]: < 11 µM
IC50 [8]: < 11 µM
IC50 [9]: < 11 µM
IC50 [10]: < 11 µM
IC50 [11]: < 11 µM

CSCC[C@H](NC(=O)[C@H](CS)NC(=O)[C@H](CCCNC(=N)N)NC(=O)[C@H](CCCNC(=N)N)NC(=O)[C@H](CCCNC(=N)N)NC(=O)[C@H](CCCNC(=N)N)NC(=O)[C@H](CCCNC(=N)N)NC(=O)[C@H](CCCNC(=N)N)NC(=O)[C@H](CCCNC(=N)N)NC(=O)[C@H](CCCNC(=N)N)NC(=O)[C@@H](N)CCCNC(=N)N)C(=O)N[C@@H](CCC(=O)O)C(=O)N[C@@H](CC(C)C)C(=O)NCC(=O)N[C@@H](CCCNC(=N)N)C(=O)N[C@@H](CCC(=O)O)C(=O)N[C@@H](CS)C(=O)N[C@@H](CC(C)C)C(=O)N[C@@H](CC(N)=O)C(=O)N[C@@H](CC(C)C)C(=O)N[C@@H](Cc1c[nH]c2ccccc12)C(N)=O [RM3] (H-RRRRRRRRRCMELGRECLNLW-NH2)
platelets (PLT) [1]: no significant effect
red blood cells (RBC) [1]: no significant effect
white blood cells (WBC) in the blood [1]: slightly increased this index
hemoglobin (HMGB) [1]: a certain reducing effect
body weight changes [2, 13]: no significant effect on the body weight

RRRRRRRRRRKMELGREMLNLW [Polypeptide R9-RKM]
effect of mutation of R9-MPF13 on the anti-proliferative effect [3]: enhance the anti-proliferative effect

RRRRRRRRRRKMELGREFLNLW [Polypeptide R9-RKF]
effect of mutation of R9-MPF13 on the anti-proliferative effect [3]: enhance the anti-proliferative effect

ELGRECLNLW [Polypeptide M3]
binding to the proteins of METTL3 and METTL14 (METTL3 and METTL14): can bind

RRRRRRRRRRRMELGRELLNLW [Polypeptide R9-RRL]
effect of mutation of R9-MPF13 on the anti-proliferative effect [3]: enhance the anti-proliferative effect

RRRRRRRRRRKWELGRELLNLW [Polypeptide R9-RKWL]
inhibitory effect on the proliferation of prostate cancer cells DU145 [3]: better inhibitory effect
effect of mutation of R9-MPF13 on the anti-proliferative effect [3]: enhance the anti-proliferative effect

FGRPHNVQ [Polypeptide M2, tested after being connected with the cell-penetrating peptide R9]
effect of inhibiting cell growth after combining with the cell-penetrating peptide R9 (PC3 cells): certain effect of inhibiting cell growth
effect of inhibiting cell growth after combining with the cell-penetrating peptide R9 (DU145 cells): certain effect of inhibiting cell growth

RRRRRRRRRRAMEEGRECLNLW [Polypeptide R9-RE]
effect of mutation of R9-MPF13 on the anti-proliferative effect [3]: weaken the anti-proliferative effect
